This is an account of results in patent US20250361240A1, “PYRANOPYRIDINE COMPOUND, PROCESS FOR PREPARING THE SAME, PHARMACEUTICAL COMPOSITION AND USE THEREOF” (Zhejiang Yangli Pharmaceutical Technology Co., Ltd., priority 2024, published 2025).

One data set concerns the target human CYP11B1 (Homo sapiens (Human), UniProt P15538). In words: Inhibitory activity against hCYP11B1 in G-402 CYP11B1 high expression stable transformants (cortisol HTRF). As to conditions: G-402 CYP11B1 cells, 0.2 μM 11-deoxycortisol, 16 hours; read-out: hCYP11B1 Abs IC50. The format is cell-based. As for the experimental part:
1. Experimental System: G-402 CYP11B2 or CYP11B1 High Expression Stable Transformants
The above-mentioned high-expression stable transformants were constructed based on human […] cell line G-402. The artificial lentiviruses were introduced into human CYP11B2 (NM_000498.3) and CYP11B1 (NM_000497.4), respectively.
Maintenance medium: McCoy's 5A (modified, #16600082, GIBCO)+10% FBS (GIBCO)+1 μg/mL puromycin (A1113803, GIBCO).
Resuscitation and seeding medium: McCoy's 5A (modified, #16600082, GIBCO)+10% FBS (GIBCO).
Reaction medium: DMEM/F12 (#11320033, GIBCO)+2.5% activated charcoal filtered FBS (S11695, R & D).
Seeding: Cells were cultured to a suitable state after resuscitation with maintenance medium, and 96-well flat plates were seeded with seeding medium according to 1×10^4/100 μL/well (unified cell volume).
Changing solution: The supernatant was aspirated and discarded after seeding overnight (>12 hours) and adherence. 100-150 μL/well serum-free medium was added, and after being aspirated. After aspiration, 50 μL/well reaction medium was added for later use.
Formulation: Compound was diluted with reaction medium containing 0.4 μM substrate (final experimental concentration is 0.2 μM):
CYP11B1 substrate: 11-deoxycortisol (11-deoxycortisol, S4775, selleckchem). The final reaction concentration was 0.2 μM.
Loading: The above compound dilutions were added to the cell plates at 50 μL/well. The background and control wells were set.
Treating and sampling: The cell plates were incubated in a cell incubator for 16 hours after loading, and then each cell plate was centrifuged at 450 g for 2 min. 75 μL supernatant was transferred to a collection plate and frozen at −80° C. for future use (or direct detection).
Detection: Homogeneous time-resolved fluorescence kit (Cisbio HTRF kit, Cat.64ALDPEG, Cat.62CRTPEG) was used to determine the concentration of aldosterone or cortisol in the supernatant.
Analysis: The absolute IC50 (Abs IC50) for each compound was calculated using a four parameter fit.

A further data set deals with CYP2C9 (Homo sapiens (Human), UniProt P11712). In words: In vitro inhibitory activity against common CYP450 enzymes: CYP2C9. The format is in vitro ADME. The following applies: microsomes, substrate Diclofenac. The procedure:
(§1) A working solution of the test compound was prepared in a solvent of dimethyl sulfoxide (DMSO) (starting at a final concentration of 50 μM, 3-fold dilution of 7 concentration points). The corresponding microsomes (CORNING, Cat No.452117) and the corresponding substrate solution were prepared (components were shown in Table 2). The working solution of the test compound and the corresponding microsomes were mixed with the corresponding substrate solution and the HLM working solution. The mixture was preheated in a 37.0° C. water bath for 10 min. NADPH cofactor (BONTAC, Cat No.BT04) was added. The resultant mixture was incubated for 10 min in a 37.0° C. water bath. The reaction was terminated by adding cold stop solution. [table] [table] The sample was centrifuged at 4000 rpm for 20 min to precipitate protein and the supernatant was transferred to HPLC water and shaken for 10 min.

For another data set, the target named is CYP2C19 (Homo sapiens (Human), UniProt P33261). In words: In vitro inhibitory activity against common CYP450 enzymes: CYP2C19. It counts as in vitro ADME. The following applies: microsomes, substrate (S)-(+)-Mephenytoin. As for the experimental part:
as §1

The next data set concerns the target CYP3A (Homo sapiens, UniProt P08684). In words: In vitro inhibitory activity against common CYP450 enzymes: CYP3A (midazolam). The format is in vitro ADME. The following applies: human, human liver microsomes, probe Midazolam, substrate Midazolam. As for the experimental part: as §1
In another data set the target is aldosterone synthase (Homo sapiens (Human), UniProt P19099). As to conditions: phase I clinical study, cited from earlier work.
aldosterone synthase, sequence (P19099 25-503): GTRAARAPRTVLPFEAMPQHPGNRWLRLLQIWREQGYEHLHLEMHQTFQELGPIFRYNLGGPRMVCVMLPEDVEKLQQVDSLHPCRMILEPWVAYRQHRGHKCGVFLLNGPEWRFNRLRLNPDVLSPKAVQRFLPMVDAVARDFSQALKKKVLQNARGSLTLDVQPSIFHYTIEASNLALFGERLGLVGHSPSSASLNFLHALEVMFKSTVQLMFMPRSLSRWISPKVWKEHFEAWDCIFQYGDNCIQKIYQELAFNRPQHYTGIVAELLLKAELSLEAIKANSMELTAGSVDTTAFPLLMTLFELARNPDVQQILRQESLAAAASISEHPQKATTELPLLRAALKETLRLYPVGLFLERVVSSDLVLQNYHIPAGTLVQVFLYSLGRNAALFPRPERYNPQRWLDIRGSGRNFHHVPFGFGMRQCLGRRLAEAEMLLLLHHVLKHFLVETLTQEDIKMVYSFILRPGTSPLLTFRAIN

Bounds are passed on as bounds.

CYP2C19, sequence (P33261 whole entry): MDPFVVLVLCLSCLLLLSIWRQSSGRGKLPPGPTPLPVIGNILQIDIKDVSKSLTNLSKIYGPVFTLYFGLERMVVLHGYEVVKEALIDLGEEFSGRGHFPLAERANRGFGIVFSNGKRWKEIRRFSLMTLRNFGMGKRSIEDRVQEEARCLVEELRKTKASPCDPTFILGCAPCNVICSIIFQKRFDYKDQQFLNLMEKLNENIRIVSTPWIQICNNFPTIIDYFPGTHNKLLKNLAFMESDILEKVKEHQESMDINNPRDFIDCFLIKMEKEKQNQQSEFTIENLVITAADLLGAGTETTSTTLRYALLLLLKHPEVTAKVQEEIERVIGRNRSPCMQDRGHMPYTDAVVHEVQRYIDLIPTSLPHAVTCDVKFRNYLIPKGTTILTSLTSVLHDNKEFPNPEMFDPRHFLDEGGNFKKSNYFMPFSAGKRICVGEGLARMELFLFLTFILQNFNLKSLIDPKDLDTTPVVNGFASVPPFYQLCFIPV
CYP3A, sequence (P08684 2-503 limits assumed): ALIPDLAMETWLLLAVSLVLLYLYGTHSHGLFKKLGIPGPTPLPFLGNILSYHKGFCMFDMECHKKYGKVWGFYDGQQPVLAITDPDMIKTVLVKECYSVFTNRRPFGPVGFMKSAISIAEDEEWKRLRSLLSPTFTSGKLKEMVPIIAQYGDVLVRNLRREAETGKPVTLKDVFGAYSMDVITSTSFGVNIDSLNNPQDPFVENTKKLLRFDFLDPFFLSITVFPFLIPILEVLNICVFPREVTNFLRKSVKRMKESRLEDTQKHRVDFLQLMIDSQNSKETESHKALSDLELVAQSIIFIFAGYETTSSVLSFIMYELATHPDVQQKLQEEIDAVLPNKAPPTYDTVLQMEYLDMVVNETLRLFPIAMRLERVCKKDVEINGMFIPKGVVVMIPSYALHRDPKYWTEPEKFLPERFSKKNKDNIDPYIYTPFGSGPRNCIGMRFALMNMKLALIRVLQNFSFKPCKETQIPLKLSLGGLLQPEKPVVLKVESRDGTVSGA
CYP2C9, sequence (P11712 whole entry): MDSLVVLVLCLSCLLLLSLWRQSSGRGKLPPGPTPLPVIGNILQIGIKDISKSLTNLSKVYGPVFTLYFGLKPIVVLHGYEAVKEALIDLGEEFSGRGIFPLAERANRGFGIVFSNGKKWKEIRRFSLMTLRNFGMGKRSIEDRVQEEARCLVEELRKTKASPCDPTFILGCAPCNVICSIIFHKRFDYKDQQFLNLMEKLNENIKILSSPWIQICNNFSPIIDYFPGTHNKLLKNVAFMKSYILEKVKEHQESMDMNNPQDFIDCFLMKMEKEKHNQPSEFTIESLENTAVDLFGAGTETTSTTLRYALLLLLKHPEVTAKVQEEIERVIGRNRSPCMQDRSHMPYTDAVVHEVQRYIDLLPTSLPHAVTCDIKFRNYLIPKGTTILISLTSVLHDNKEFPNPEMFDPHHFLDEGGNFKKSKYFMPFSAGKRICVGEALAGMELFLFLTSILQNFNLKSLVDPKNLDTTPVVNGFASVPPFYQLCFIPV
human CYP11B1, sequence (P15538 25-503): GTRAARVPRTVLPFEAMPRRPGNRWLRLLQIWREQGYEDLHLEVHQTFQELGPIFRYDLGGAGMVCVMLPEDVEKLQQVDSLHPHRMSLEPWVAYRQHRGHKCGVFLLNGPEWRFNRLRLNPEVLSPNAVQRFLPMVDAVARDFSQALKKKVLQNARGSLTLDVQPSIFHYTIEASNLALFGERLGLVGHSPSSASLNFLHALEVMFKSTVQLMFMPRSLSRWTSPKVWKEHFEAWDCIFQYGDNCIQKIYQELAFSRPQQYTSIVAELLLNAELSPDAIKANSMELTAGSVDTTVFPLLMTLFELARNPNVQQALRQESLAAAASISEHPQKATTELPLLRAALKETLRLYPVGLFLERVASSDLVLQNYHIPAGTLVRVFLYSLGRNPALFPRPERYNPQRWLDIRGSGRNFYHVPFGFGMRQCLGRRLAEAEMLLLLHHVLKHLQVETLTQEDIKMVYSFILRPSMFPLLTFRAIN

As for `CCC(=O)N[C@@H]1CCCc2c(-c3ccc4c(c3)CCC(=O)N4C)cncc21` [Baxdrostat, reference compound], the results for the IC50 at human CYP11B1, against CYP2C9 and against CYP2C19 were 3.37 µM, 35.2 µM and 6.52 µM, respectively. In addition, the IC50 at 10 min on CYP3A is over 50 µM. Moreover, on aldosterone synthase (dose-dependent), the “reduction of aldosterone level in plasma” value is given as “more than 70%”. Also, on aldosterone synthase, the “inhibition of aldosterone synthase relative to inhibition of cortisol synthesis” value is recorded as 100 times.
